Several values for one entry are separate records, joined by “and”; a condition that tells them apart may be missing. Identical values can stand only once. Toxic doses and inconclusive results are not listed. Rule for the calls: active = survival T/C of 150% or more; inactive = T/C below 125% in these data.
Test system: P388 leukemia ip, CD2F1 mice, survival T/C
Assay: NCI In Vivo Anticancer Drug Screen. Data for tumor model P388 Leukemia (intraperitoneal) in CD2F1 (CDF1) mice
Conditions: endpoint: median survival time, higher = longer survival
Procedure, shortened: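 Mice carrying the transplanted tumor received test compound or vehicle. Survival was recorded in each group, and the value is the treated-group measurement divided by that of the vehicle-treated control group.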

[1] = dose: 50.0 mg/kg/injection, schedule: Q01DX009 (ip), vehicle: saline
[2] = dose: 100.0 mg/kg/injection, schedule: Q01DX009 (ip), vehicle: saline
[3] = dose: 200.0 mg/kg/injection, schedule: Q01DX009 (ip), vehicle: saline
[4] = dose: 50.0 mg/kg/injection, schedule: Q01DX009 (ip), vehicle: saline with Tween-80
[5] = dose: 100.0 mg/kg/injection, schedule: Q04DX003 (ip), vehicle: saline with Tween-80
[6] = dose: 200.0 mg/kg/injection, schedule: Q04DX003 (ip), vehicle: saline with Tween-80
[7] = dose: 60.0 mg/kg/injection, schedule: Q01DX005 (ip), vehicle: saline with Tween-80
[8] = dose: 120.0 mg/kg/injection, schedule: Q01DX005 (ip), vehicle: saline with Tween-80
[9] = dose: 240.0 mg/kg/injection, schedule: Q01DX005 (ip), vehicle: saline with Tween-80
[10] = dose: 50.0 mg/kg/injection, schedule: Q01DX005 (ip), vehicle: saline
[11] = dose: 100.0 mg/kg/injection, schedule: Q01DX005 (ip), vehicle: saline
[12] = dose: 200.0 mg/kg/injection, schedule: Q01DX005 (ip), vehicle: saline
[13] = dose: 50.0 mg/kg/injection, schedule: Q01DX009 (ip), vehicle: Klucel (hydroxypropylcellulose) (HPC)
[14] = dose: 25.0 mg/kg/injection, schedule: Q01DX005 (ip), vehicle: saline with Tween-80
[15] = dose: 50.0 mg/kg/injection, schedule: Q01DX005 (ip), vehicle: saline with Tween-80
[16] = dose: 100.0 mg/kg/injection, schedule: Q01DX005 (ip), vehicle: saline with Tween-80
[17] = dose: 200.0 mg/kg/injection, schedule: Q01DX005 (ip), vehicle: saline with Tween-80

Measured: T/C

O=C(O)Cc1cn2cc(Br)cc(Br)c2n1
inactive: dose: 100.0 mg/kg/injection, schedule: Q01DX001 (ip), vehicle: saline with Tween-80 109 % of control | dose: 200.0 mg/kg/injection, schedule: Q01DX001 (ip), vehicle: saline with Tween-80 97 % of control | dose: 400.0 mg/kg/injection, schedule: Q01DX001 (ip), vehicle: saline with Tween-80 98 % of control

COc1ccc(/C(C)=N/OC(=O)c2sc3ccccc3c2Cl)cc1CN1CCOCC1
inactive: [1] 93 % of control | [2] 97 % of control | [3] 100 % of control

O=C(N=Nc1c(O)[nH]c2ccccc12)C(=O)Nc1cccc(C(F)(F)F)c1
inactive: dose: 12.5 mg/kg/injection, schedule: Q01DX009 (ip), vehicle: saline with Tween-80 92 % of control | dose: 25.0 mg/kg/injection, schedule: Q01DX009 (ip), vehicle: saline with Tween-80 89 % of control | [4] 86 % of control

CCN(CC)c1nc(Cl)nc(NC(C)C)n1
inactive: [5] 100 % of control | [6] 95 % of control

CN(C)CCOc1ccc(/C=C2\CCc3ccccc3C2=O)cc1
inactive: [7] 97 % of control | [8] 94 % of control | [9] 95 % of control

Cc1ccc(NC(=O)Oc2ccccc2F)c([N+](=O)[O-])c1
inactive: [4] 115 % of control | dose: 100.0 mg/kg/injection, schedule: Q01DX009 (ip), vehicle: saline with Tween-80 115 % of control | dose: 200.0 mg/kg/injection, schedule: Q01DX009 (ip), vehicle: saline with Tween-80 115 % of control

CN1C(C)(C)CC(C)(O)CC1(C)C
inactive: [10] 91 % of control | [11] 94 % of control | [12] 106 % of control

c1cc2c3c(cccc3c1)-c1nc3c(ccc4ccccc43)nc1-2
inactive: [13] 107 % of control | dose: 100.0 mg/kg/injection, schedule: Q01DX009 (ip), vehicle: Klucel (hydroxypropylcellulose) (HPC) 101 % of control | dose: 200.0 mg/kg/injection, schedule: Q01DX009 (ip), vehicle: Klucel (hydroxypropylcellulose) (HPC) 93 % of control | dose: 400.0 mg/kg/injection, schedule: Q01DX009 (ip), vehicle: Klucel (hydroxypropylcellulose) (HPC) 107 % of control

CC(=O)OC1CC2C(C)(C)C(=O)C=CC2(C)C2CCC3(C)C(c4ccoc4)CC(=O)C3C12C (configuration not stated)
inactive: dose: 0.5 mg/kg/injection, schedule: Q01DX005 (ip), vehicle: Klucel (hydroxypropylcellulose) (HPC) 99 % of control | dose: 1.0 mg/kg/injection, schedule: Q01DX005 (ip), vehicle: Klucel (hydroxypropylcellulose) (HPC) 100 % of control | dose: 2.0 mg/kg/injection, schedule: Q01DX005 (ip), vehicle: Klucel (hydroxypropylcellulose) (HPC) 97 % of control | dose: 4.0 mg/kg/injection, schedule: Q01DX005 (ip), vehicle: Klucel (hydroxypropylcellulose) (HPC) 100 % of control | dose: 8.0 mg/kg/injection, schedule: Q01DX005 (ip), vehicle: Klucel (hydroxypropylcellulose) (HPC) 98 % of control

O=C/C(=N/Nc1ccc([N+](=O)[O-])cc1)c1ccccc1
inactive: dose: 37.5 mg/kg/injection, schedule: Q01DX009 (ip), vehicle: saline with Tween-80 94 % of control | dose: 75.0 mg/kg/injection, schedule: Q01DX009 (ip), vehicle: saline with Tween-80 90 % of control | dose: 150.0 mg/kg/injection, schedule: Q01DX009 (ip), vehicle: saline with Tween-80 86 % of control

CC[N+]1([O-])CCOCC1
inactive: [1] 97 % of control | [2] 101 % of control | [3] 113 % of control

O=C(NCCc1ccc(Cl)cc1)c1ccc(Cl)cc1
inactive: [7] 96 % of control | [8] 97 % of control | [9] 91 % of control

CC(SC(SC(C)C(=O)O)c1ccccc1)C(=O)O (configuration not stated)
inactive: dose: 100.0 mg/kg/injection, schedule: Q01DX001 (ip), vehicle: other 105 % of control | dose: 200.0 mg/kg/injection, schedule: Q01DX001 (ip), vehicle: other 107 % of control | dose: 400.0 mg/kg/injection, schedule: Q01DX001 (ip), vehicle: other 98 % of control

COc1cc2ccnc(C3(OC(=O)c4ccccc4)CCN(CCc4ccccc4)CC3)c2cc1OC
inactive: dose: 12.5 mg/kg/injection, schedule: Q01DX009 (ip), vehicle: saline 96 % of control | dose: 25.0 mg/kg/injection, schedule: Q01DX009 (ip), vehicle: saline 92 % of control | [4] 96 % of control

CN(C)CC1CCc2c(ccc3ccccc23)C1=O (configuration not stated)
inactive: dose: 12.5 mg/kg/injection, schedule: Q01DX005 (ip), vehicle: saline with Tween-80 100 % of control | [14] 103 % of control | [15] 100 % of control | [16] 104 % of control

OC1(O)/C=C\CCCCC/C=C\1
inactive: [14] 100 % of control | [15] 101 % of control | [16] 99 % of control and 102 % of control | [17] 105 % of control

O=NNc1ccnc(-c2cc(NN=O)ccn2)c1
inactive: dose: 3.12 mg/kg/injection, schedule: Q01DX009 (ip), vehicle: water 114 % of control | dose: 6.25 mg/kg/injection, schedule: Q01DX009 (ip), vehicle: water 120 % of control and 122 % of control | dose: 100.0 mg/kg/injection, schedule: Q01DX009 (ip), vehicle: water 87 % of control

O=C(O)c1cc(Br)cc(SSc2cc(Br)cc(C(=O)O)c2O)c1O
inactive: [4] 96 % of control

Cc1nc2ccccc2c(=O)n1/N=C/c1ccc(Cl)cc1Cl
inactive: [15] 92 % of control | [16] 100 % of control

O=C(O)[C@@H]1C[C@@H](O)CN1
inactive: [1] 96 % of control | [2] 96 % of control | [3] 100 % of control

CC(C(O)c1cc2c(c3ccccc13)CCCC2)N1CCOCC1 (configuration not stated)
inactive: dose: 100.0 mg/kg/injection, schedule: Q01DX009 (ip), vehicle: suspension in saline 104 % of control | dose: 200.0 mg/kg/injection, schedule: Q01DX009 (ip), vehicle: suspension in saline 99 % of control | dose: 400.0 mg/kg/injection, schedule: Q01DX009 (ip), vehicle: suspension in saline 104 % of control

Cc1cc(N)c(C)c([N+](=O)[O-])c1
inactive: dose: 50.0 mg/kg/injection, schedule: Q04DX003 (ip), vehicle: saline with Tween-80 95 % of control | [5] 91 % of control | [6] 100 % of control

CCN(CC)c1cccc(Nc2nc3ccccc3s2)c1
inactive: dose: 60.0 mg/kg/injection, schedule: Q01DX005 (ip), vehicle: Klucel (hydroxypropylcellulose) (HPC) 97 % of control | dose: 120.0 mg/kg/injection, schedule: Q01DX005 (ip), vehicle: Klucel (hydroxypropylcellulose) (HPC) 88 % of control | dose: 240.0 mg/kg/injection, schedule: Q01DX005 (ip), vehicle: Klucel (hydroxypropylcellulose) (HPC) 93 % of control

O=C(O)c1cccc2c1Oc1c(cccc1C(=O)O)S2
inactive: [15] 98 % of control | [16] 107 % of control | [17] 108 % of control

CCN(CC)CCCOc1ncnc2ccc(Cl)cc12
inactive: dose: 25.0 mg/kg/injection, schedule: Q01DX005 (ip), vehicle: saline 98 % of control | [10] 99 % of control | [11] 93 % of control | [12] 96 % of control

Cc1c(CCl)cc([N+](=O)[O-])cc1CCl
inactive: dose: 6.25 mg/kg/injection, schedule: Q01DX009 (ip), vehicle: Klucel (hydroxypropylcellulose) (HPC) 99 % of control | dose: 12.5 mg/kg/injection, schedule: Q01DX009 (ip), vehicle: Klucel (hydroxypropylcellulose) (HPC) 112 % of control and 114 % of control (2×) | dose: 25.0 mg/kg/injection, schedule: Q01DX009 (ip), vehicle: Klucel (hydroxypropylcellulose) (HPC) 116 % of control and 117 % of control and 120 % of control | [13] 114 % of control and 117 % of control

Cc1[nH]n(-c2ccc(S(=O)(=O)O)cc2)c(=O)c1N=Nc1ccccc1
inactive: [7] 96 % of control | [8] 100 % of control | [9] 90 % of control

O=C(/C=C/c1ccccc1)c1ccccc(=O)c1O
inactive: dose: 50.0 mg/kg/injection, schedule: Q01DX005 (ip), vehicle: Klucel (hydroxypropylcellulose) (HPC) 105 % of control | dose: 100.0 mg/kg/injection, schedule: Q01DX005 (ip), vehicle: Klucel (hydroxypropylcellulose) (HPC) 113 % of control | dose: 200.0 mg/kg/injection, schedule: Q01DX005 (ip), vehicle: Klucel (hydroxypropylcellulose) (HPC) 104 % of control

Reference: PubChem BioAssay AID330 (DTP/NCI, 2004)
